Patent publication US20100113465A1, “7-AZASPIRO[3.5]NONANE-7-CARBOXAMIDE COMPOUNDS” (Pfizer Inc., priority 2008, published 2010)
Marks after values point to notes of the source that are not given here.

Legend:
Male Sprague-Dawley Rats [1] = test: In vivo Complete Freund's Adjuvant (CFA) efficacy assay; set-up: species or system rat; key: (+) indicates the test compound was determined to be efficacious at 3 mpk, oral dosing; (−) indicates the test compound was determined to not be efficacious at 3 mpk, oral dosing; settings: inhibition of allodynia vs vehicle, p<0.05
rat FAAH = molecular target: T1, rat FAAH (Rattus norvegicus, UniProt P97612); test: FAAH assay, rat FAAH enzyme inhibition (kinact/Ki); assay type: biochemical; settings: oleamide substrate 50 μM, 30° C., read-out: rFAAH kinact/Ki
T1 construct: made in house; host or cells: E. coli
T1 sequence (P97612 1-579): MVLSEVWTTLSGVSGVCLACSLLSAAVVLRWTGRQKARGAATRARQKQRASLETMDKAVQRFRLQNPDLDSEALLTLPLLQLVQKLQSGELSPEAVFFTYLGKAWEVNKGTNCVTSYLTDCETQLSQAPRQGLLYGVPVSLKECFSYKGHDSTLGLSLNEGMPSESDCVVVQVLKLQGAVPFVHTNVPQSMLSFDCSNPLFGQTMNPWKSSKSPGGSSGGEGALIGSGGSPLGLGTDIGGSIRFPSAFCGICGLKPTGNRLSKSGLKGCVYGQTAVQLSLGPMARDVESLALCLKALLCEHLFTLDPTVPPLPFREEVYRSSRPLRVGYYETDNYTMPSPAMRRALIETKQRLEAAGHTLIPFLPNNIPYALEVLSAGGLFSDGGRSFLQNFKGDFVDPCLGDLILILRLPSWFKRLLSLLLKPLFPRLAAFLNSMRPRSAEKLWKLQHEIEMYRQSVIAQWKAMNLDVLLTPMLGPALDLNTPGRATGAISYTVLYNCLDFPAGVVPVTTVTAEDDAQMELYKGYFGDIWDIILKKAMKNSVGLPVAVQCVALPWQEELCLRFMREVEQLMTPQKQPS
How it was run: (§1)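 Purified E. coli-expressed FAAH (1-4 nM) with oleamide at Km (50 μM), coupled GDH/NADH read at 340 nm over 90 min, 30° C, pH 7.4, 7.5% DMSO and EtOH. kobs from mono-exponential fits; kinact/Ki from kobs vs inhibitor slope, multiplied by two.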

human FAAH = molecular target: T2, human FAAH (Homo sapiens, UniProt O00519); test: FAAH assay, human FAAH enzyme inhibition (kinact/Ki); assay type: biochemical; settings: oleamide substrate 50 μM, 30° C., read-out: hFAAH kinact/Ki
T2 construct: made in house; host or cells: E. coli
T2 sequence (O00519 1-579): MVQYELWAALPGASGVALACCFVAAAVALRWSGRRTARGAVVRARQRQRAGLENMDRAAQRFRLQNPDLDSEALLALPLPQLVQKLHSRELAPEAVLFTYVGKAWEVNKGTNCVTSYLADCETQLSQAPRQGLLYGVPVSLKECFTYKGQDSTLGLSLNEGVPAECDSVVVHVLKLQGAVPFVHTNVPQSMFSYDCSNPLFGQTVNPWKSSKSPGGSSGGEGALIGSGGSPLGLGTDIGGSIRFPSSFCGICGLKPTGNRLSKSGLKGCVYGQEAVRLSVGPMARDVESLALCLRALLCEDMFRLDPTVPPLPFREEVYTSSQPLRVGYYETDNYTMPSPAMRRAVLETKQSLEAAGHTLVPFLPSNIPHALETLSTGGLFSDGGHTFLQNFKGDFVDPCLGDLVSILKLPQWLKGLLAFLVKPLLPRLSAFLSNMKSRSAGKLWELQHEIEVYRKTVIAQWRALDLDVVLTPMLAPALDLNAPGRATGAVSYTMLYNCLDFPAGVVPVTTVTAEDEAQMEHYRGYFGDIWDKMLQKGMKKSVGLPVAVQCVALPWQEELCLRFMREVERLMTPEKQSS
How it was run: as §1

Male Sprague-Dawley Rats [2] = test: In vivo Complete Freund's Adjuvant (CFA) efficacy assay; set-up: species or system rat; key: (+) indicates the test compound was determined to be efficacious at 3 mpk, oral dosing; (−) indicates the test compound was determined to not be efficacious at 3 mpk, oral dosing; settings: 3 mpk, oral dosing; inhibition of allodynia (PWT) four hours postdose vs vehicle, p<0.05
Experimental: For additional information on the CFA efficacy assay, see Jayamanne et al., Brit. J. Pharmacol. 2006, 147, 281-288. Experiments were performed on adult Male Sprague-Dawley Rats (200 g-250 g). Inflammation was induced in the left hindpaw of the rat by an intra-plantar injection of 150 uL Complete Freund's Adjuvant (CFA) (SIGMA F5881). The CFA injection immediately induces local inflammation, paw swelling, and pain that persists for at least two weeks post-injection. Baseline paw withdrawal threshold (PWT) was measured to determine the percent inhibition of allodynia using a set of Von Frey Hairs on day 4 post injection as illustrated by the Dixon Up and Down Method (W. J. Dixon, Ann. Rev. Pharmacol. Toxicol. 1980, 20:441-462). […] Test compound was administered at a concentration of 3 mg/kg (mpk) orally with the dosing vehicle 5% N,N′-Dimethylacetamide (SIGMA D137510) and 95% (40% 2-hydroxypropyl-beta-cyclodextrin in water) (SIGMA H107). Following Dose administration PWT threshold was evaluated again at four hours postdose. The Sprague-Dawley rats used in this assay were purchased from Harlan, 8520 Allison Pointe Blvd., Indianapolis, Ind., 46250, U.S.A. Sprague-Dawley rats are an outbred breed of albino rats first produced by the Sprague Dawley farms in Madison, Wis., U.S.A.
Percent Inhibition of Allodynia was determined by the formula: […]
ΔPWT measurements were averaged for each treatment group and statistical comparisons between groups were made using ANOVA and Dunnett's two-tailed test. […]

| SMILES | kinact/KI (rat FAAH) [M⁻¹ s⁻¹] | kinact/KI (human FAAH) [M⁻¹ s⁻¹] | CFA Efficacy (Male Sprague-Dawley Rats [1]; 10 mpk, intraperitoneal dosing) | CFA Efficacy (Male Sprague-Dawley Rats [1]; 1 mpk, oral dosing) | CFA Efficacy (Male Sprague-Dawley Rats [1]; 25 mpk, intraperitoneal dosing) | CFA Efficacy (Male Sprague-Dawley Rats [2]) |
| --- | --- | --- | --- | --- | --- | --- |
| O=C(Nc1cccnn1)N1CCC2(CC1)CC(c1cccc(Oc3ccc(C(F)(F)F)cn3)c1)C2 [Example 1, N-pyridazin-3-yl-2-(3-{[5-(trifluoromethyl)pyridin-2-yl]oxy}phenyl)-7-azaspiro[3.5]nonane-7-carboxamide] | 647 | 1570 | (−)^c | – | – | – |
| COc1cccc(C2CC3(CCN(C(=O)Nc4onc(C)c4C)CC3)C2)c1 [Example 5, N-(3,4-dimethylisoxazol-5-yl)-2-(3-methoxyphenyl)-7-azaspiro[3.5]nonane-7-carboxamide] | 741 | 2190 | (+)^c | – | – | – |
| Cc1cccc(C2CC3(CCN(C(=O)Nc4onc(C)c4C)CC3)C2)c1 [Example 7, N-(3,4-dimethylisoxazol-5-yl)-2-(3-methylphenyl)-7-azaspiro[3.5]nonane-7-carboxamide] | 1620 | 2870 | – | (−)^e | – | – |
| Cc1noc(NC(=O)N2CCC3(CC2)CC(c2cccc(C(F)(F)F)c2)C3)c1C [Example 6, N-(3,4-dimethylisoxazol-5-yl)-2-[3-(trifluoromethyl)phenyl]-7-azaspiro[3.5]nonane-7-carboxamide] | 3690 | 3060 | – | (−)^e | – | – |
| O=C(Nc1noc2ccccc12)N1CCC2(CC1)CC(c1cccc(Oc3ccc(C(F)(F)F)cn3)c1)C2 [Example 3, N-1,2-benzisoxazol-3-yl-2-(3-{[5-(trifluoromethyl)pyridin-2-yl]oxy}phenyl)-7-azaspiro[3.5]nonane-7-carboxamide] | 4920 | 1030 | – | (−) | (+) | – |
| Cc1noc(NC(=O)N2CCC3(CC2)CC(c2cccc(Oc4ccc(C(F)(F)F)cn4)c2)C3)c1C [Example 2, N-(3,4-dimethylisoxazol-5-yl)-2-(3-{[5-(trifluoromethyl)pyridin-2-yl]oxy}phenyl)-7-azaspiro[3.5]nonane-7-carboxamide] | 9460 | 1760 | – | – | (+)^d | – |
| Cc1ccc(C2CC3(CCN(C(=O)Nc4onc(C)c4C)CC3)C2)cc1C [Example 8, N-(3,4-dimethylisoxazol-5-yl)-2-(3,4-dimethylphenyl)-7-azaspiro[3.5]nonane-7-carboxamide] | 1920 | 2820 | – | (−)^e | – | – |

The next lines start with results.

| kinact/KI (rat FAAH) [M⁻¹ s⁻¹] | kinact/KI (human FAAH) [M⁻¹ s⁻¹] | SMILES | CFA Efficacy (Male Sprague-Dawley Rats [1]; 10 mpk, intraperitoneal dosing) | CFA Efficacy (Male Sprague-Dawley Rats [1]; 1 mpk, oral dosing) | CFA Efficacy (Male Sprague-Dawley Rats [1]; 25 mpk, intraperitoneal dosing) | CFA Efficacy (Male Sprague-Dawley Rats [2]) |
| --- | --- | --- | --- | --- | --- | --- |
| 1430 | 2450 | O=C(Nc1cccnn1)N1CCC2(CC1)CC(c1cccc(Oc3ncc(Br)cn3)c1)C2 [Example 9, 2-{3-[(5-bromopyrimidin-2-yl)oxy]phenyl}-N-pyridazin-3-yl-7-azaspiro[3.5]nonane-7-carboxamide] | (+)^c | – | – | – |
| 1370 | 2350 | Cc1noc(NC(=O)N2CCC3(CC2)CC(c2cccc(F)c2F)C3)c1C [Example 19, 2-(2,3-difluorophenyl)-N-(3,4-dimethylisoxazol-5-yl)-7-azaspiro[3.5]nonane-7-carboxamide] | – | – | – | (+) |
| 1340 | 5670 | CCc1cccc(C2CC3(CCN(C(=O)Nc4onc(C)c4C)CC3)C2)c1 [Example 22, N-(3,4-dimethylisoxazol-5-yl)-2-(3-ethylphenyl)-7-azaspiro[3.5]nonane-7-carboxamide] | – | – | – | (−) |
| 1700 | 4480 | Cc1noc(NC(=O)N2CCC3(CC2)CC(c2cccc(OCCOc4ccccc4)c2)C3)c1C [Example 26, N-(3,4-dimethylisoxazol-5-yl)-2-[3-(2-phenoxyethoxy)phenyl]-7-azaspiro[3.5]nonane-7-carboxamide] | – | – | – | (+) |
| 1820 | 2040 | O=C(Nc1cccnn1)N1CCC2(CC1)CC(c1cccc(Oc3ccc(Br)cn3)c1)C2 [Example 10, 2-{3-[(5-bromopyridin-2-yl)oxy]phenyl}-N-pyridazin-3-yl-7-azaspiro[3.5]nonane-7-carboxamide] | (−)^c | – | – | – |
